Measurements as given in US20100297229A1, “TAPENTADOL COMPOSITIONS” (Nectid Inc., priority 2007, published 2010).
Counter-ions that a name gives are not always drawn.

Key:
[1] = tested on: pain intensity associated with knee osteoarthritis; test: Study I: 6-week clinical trial of tapentadol and NSAID combination, Arthritis Pain Intensity VAS; assay type: in vivo, human; details: primary endpoint; average of Weeks 1-6; knee osteoarthritis patients; FIG. 2
[2] = tested on: Chronic non-cancer pain (CNCP); test: Study III: clinical trial of tapentadol and tramadol combination, VAS pain score; assay type: in vivo, human; details: mean ± SD, VAS 0-100 mm, N = 10
Description: The following general methods were used in all of the studies;
Randomization: Randomization was performed with computer-generated random numbers in blocks of 10. Randomization codes of the monotherapy or combination therapy treatments were placed in sequentially numbered, opaque, sealed envelopes in the biopsy center. When a patient was recruited and consented, the next numbered envelope was opened by the operator, who had no knowledge of the randomization code before the treatment
Scale and Measurement: Pain was assessed using a visual analogue scale (VAS) graded from 0-100 mm. Pain scoring was performed every visit Week 1, Week 2, Week 3, Week 4, Week 5 and Week 6. The patients were taught with a standard method by the physician how to use a VAS scoring from 0 to 100 mm to grade the intensity of pain experienced during the treatment. On that scale, the left endpoint, 0, was defined as no pain and the right endpoint 100, as the worst pain the patient could imagine. There were no further marks on the line. The intensity of pain was indicated by the distance in millimeters from the left end. Patients were asked to grade the pain intensity after the administration of drugs and the pain was assessed by the patient in their weekly pain score diary. The doctors who prescribed the medicines obtained all the VAS forms for that specific patient.
Statistical Analysis: Data are expressed as means±SD. Differences in VAS were analyzed with use of the unpaired Student t test and differences in pain score reductions between the two groups were analyzed with use of the Mann-Whitney U test for the median difference. Similar statistical tests were used for between group comparisons of other outcome variables as appropriate. A two tailed P value of less than. […] SAS software was used for the statistical analysis.
The Fixed dose combination of slow release tapentadol hydrochloride and tramadol hydrochloride was tested in a human clinical trial. In this study III, 40 patients were used in a clinical trial were suffering from Chronic non-cancer pain (CNCP), defined as pain for longer than 6 months, including neuropathic pain, osteoarthritis, rheumatoid arthritis, fibromyalgia, and back and musculoskeletal pain were included in the clinical trial. No effort was made to segregate the patients based on the type of pain nor did we evaluate the extent of pain relief on the basis of pain type. Those patients with migraines, dental pain, abdominal pains (from chronic pancreatitis, kidney stones, etc.) and ischemic pain from vascular disease were excluded because they are usually not classified as CNCP. Patients with history of addiction (alcohol or drugs) were excluded from the trials.

| Compound | LS Mean change from baseline over 6 weeks in the arthritis pain intensity VAS [1] [%] | VAS Pain Score ([2]; time 0 hours) | VAS Pain Score ([2]; time 3 hours) | VAS Pain Score ([2]; time 6 hours) | VAS Pain Score ([2]; time 9 hours) | VAS Pain Score ([2]; time 12 hours) | VAS Pain Score ([2]; time 15 hours) | VAS Pain Score ([2]; time 18 hours) | VAS Pain Score ([2]; time 21 hours) | VAS Pain Score ([2]; time 24 hours) |
| --- | --- | --- | --- | --- | --- | --- | --- | --- | --- | --- |
| CC[C@@H](c1cccc(O)c1)[C@@H](C)CN(C)C [Tapentadol, 3-(3-Dimethylamino-1-ethyl-2-methyl-propyl)-phenol] | 38 | 33.7 ± 18.2 | 24.8 ± 19.1 | 21.1 ± 22.9 | 14.2 ± 23.1 | 11.2 ± 20.9 | 11.0 ± 16.2 | 9.5 ± 17.8 | 10.4 ± 16.2 | 11.6 ± 16.2 |
| COc1cccc([C@]2(O)CCCC[C@H]2CN(C)C)c1 (racemic) [Tramadol, (±) cis-2-[(dimethylamino)methyl]-1-(3-methoxyphenyl)cyclo-hexanol hydrochloride] |  | 32.4 ± 21.2 | 23.1 ± 20.1 | 18.8 ± 20.6 | 14.9 ± 17.2 | 13.1 ± 21.2 | 13.9 ± 19.2 | 15.4 ± 21.3 | 14.5 ± 19.2 | 13.9 ± 19.2 |
| COc1ccc2cc([C@H](C)C(=O)O)ccc2c1 [Naproxen, (+)-(S)-2-(6-methoxy-naphthalen-2-yl) propanoic acid] | 28 |  |  |  |  |  |  |  |  |  |
